Measurements reported in PMC6858497 (The Journal of physiology, 2019).
Several values for one entry are separate records, joined by “and”; a condition that tells them apart may be missing. Equal entries are not always repeated.

How the values were obtained:
[1] = test system: NMDAR-EPSCs in hippocampal interneurons (CA1 s.r./s.l.m.); assay: Whole-cell patch-clamp of NMDAR-EPSCs in acute hippocampal slices; assay type: cell-based, mouse; settings: for NMDAR-EPSC peak amplitude, % of baseline: 10 μM, +40 mV, P21–28 slices
[2] = target: GluN1–1a/2B (Rattus norvegicus, UniProt P35439+Q00960); assay: Two-electrode voltage-clamp recordings, Xenopus oocytes; assay type: cell-based; settings: for nH (Hill coefficient): inhibition
[3] = target: GluN1–1a/2BC1/2DC2 (Rattus norvegicus, UniProt P35439+Q00959+Q00960+Q62645, A876H/F846L/G856D/H848F/K857R/M851T/M860L/Q845K/R869K/V861L/V866F); assay: as above; assay type: cell-based; settings: for nH (Hill coefficient): inhibition; for Relative Imin: fitted minimal response relative to control
[4] = test system: NMDAR-EPSCs in hippocampal CA1 pyramidal cells; assay: Whole-cell patch-clamp of NMDAR-EPSCs in acute hippocampal slices; assay type: cell-based, mouse; settings: for NMDAR-EPSC peak amplitude, % of baseline: 10 μM, +40 mV, P21–28 slices; for effect on EPSC decay time: treatment versus baseline, paired t test, 10 μM (spermine 100 μM)
[5] = target: GluN1–1a/2D (Rattus norvegicus, UniProt P35439+Q62645); assay: Two-electrode voltage-clamp recordings, Xenopus oocytes; assay type: cell-based; settings: for nH (Hill coefficient): inhibition
[6] = fitted minimal response relative to control, isoform 1a
[7] = isoform 1a, 300 μM glutamate plus 100 μM glycine
[8] = Mg2+ block, holding potential −40 mV
[9] = Mg2+ block, holding potential −60 mV
[10] = Mg2+ block, holding potential −80 mV
[11] = Mg2+ block, holding potential −100 mV
[12] = Woodhull model, current-voltage relationship with 0.1 mM Mg2+
[13] = IC50, channel block, −20 mV, + 1 mM Mg2+
[14] = IC50, channel block, −20 mV, control (absence of Mg2+)
[15] = IC50, channel block, −40 mV, + 1 mM Mg2+
[16] = IC50, channel block, −40 mV, control (absence of Mg2+)
[17] = IC50, channel block, −60 mV, + 1 mM Mg2+
[18] = IC50, channel block, −60 mV, control (absence of Mg2+)
[19] = channel block, −20 mV, + 1 mM Mg2+
[20] = channel block, −20 mV, control (absence of Mg2+)
[21] = channel block, −40 mV, + 1 mM Mg2+
[22] = channel block, −40 mV, control (absence of Mg2+)
[23] = channel block, −60 mV, + 1 mM Mg2+
[24] = channel block, −60 mV, control (absence of Mg2+)

GluN1–1a/2D, sequence (Q62645 28-1323, other chains not shown): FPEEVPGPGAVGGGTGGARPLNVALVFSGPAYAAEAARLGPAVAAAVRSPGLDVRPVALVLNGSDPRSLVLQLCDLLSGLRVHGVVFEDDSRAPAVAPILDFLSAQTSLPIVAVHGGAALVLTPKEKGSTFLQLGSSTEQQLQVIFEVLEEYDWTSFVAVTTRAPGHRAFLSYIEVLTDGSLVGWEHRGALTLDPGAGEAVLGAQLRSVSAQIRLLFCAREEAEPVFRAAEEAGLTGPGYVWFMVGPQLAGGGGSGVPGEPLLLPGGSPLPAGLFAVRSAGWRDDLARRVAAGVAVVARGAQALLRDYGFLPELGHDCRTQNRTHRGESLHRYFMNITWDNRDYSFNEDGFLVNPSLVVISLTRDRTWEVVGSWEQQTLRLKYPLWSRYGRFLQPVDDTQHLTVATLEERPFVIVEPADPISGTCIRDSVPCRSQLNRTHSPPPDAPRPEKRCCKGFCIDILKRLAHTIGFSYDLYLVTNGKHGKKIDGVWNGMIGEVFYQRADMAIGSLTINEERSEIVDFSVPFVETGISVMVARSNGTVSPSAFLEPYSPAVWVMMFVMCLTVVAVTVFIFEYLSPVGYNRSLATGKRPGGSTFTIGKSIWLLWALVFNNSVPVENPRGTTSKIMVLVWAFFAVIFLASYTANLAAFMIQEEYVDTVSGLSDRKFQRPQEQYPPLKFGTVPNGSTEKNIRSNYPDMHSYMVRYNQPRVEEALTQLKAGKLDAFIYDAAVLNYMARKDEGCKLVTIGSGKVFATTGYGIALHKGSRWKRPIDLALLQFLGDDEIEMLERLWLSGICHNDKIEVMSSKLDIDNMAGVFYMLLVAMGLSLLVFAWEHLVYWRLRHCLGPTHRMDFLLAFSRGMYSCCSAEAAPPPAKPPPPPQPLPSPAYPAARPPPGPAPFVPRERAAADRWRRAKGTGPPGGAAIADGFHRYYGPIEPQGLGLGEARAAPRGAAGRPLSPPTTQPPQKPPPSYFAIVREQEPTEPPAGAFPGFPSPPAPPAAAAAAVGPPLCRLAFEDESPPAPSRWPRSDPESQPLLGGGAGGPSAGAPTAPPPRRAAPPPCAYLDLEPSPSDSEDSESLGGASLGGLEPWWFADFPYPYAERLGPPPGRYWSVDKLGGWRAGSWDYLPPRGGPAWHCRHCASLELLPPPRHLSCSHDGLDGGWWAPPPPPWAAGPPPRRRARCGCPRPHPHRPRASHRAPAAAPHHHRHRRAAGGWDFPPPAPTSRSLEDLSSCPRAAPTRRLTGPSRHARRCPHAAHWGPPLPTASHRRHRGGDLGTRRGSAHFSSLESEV
GluN1–1a/2B, sequence (Q00960 27-1482, other chains not shown): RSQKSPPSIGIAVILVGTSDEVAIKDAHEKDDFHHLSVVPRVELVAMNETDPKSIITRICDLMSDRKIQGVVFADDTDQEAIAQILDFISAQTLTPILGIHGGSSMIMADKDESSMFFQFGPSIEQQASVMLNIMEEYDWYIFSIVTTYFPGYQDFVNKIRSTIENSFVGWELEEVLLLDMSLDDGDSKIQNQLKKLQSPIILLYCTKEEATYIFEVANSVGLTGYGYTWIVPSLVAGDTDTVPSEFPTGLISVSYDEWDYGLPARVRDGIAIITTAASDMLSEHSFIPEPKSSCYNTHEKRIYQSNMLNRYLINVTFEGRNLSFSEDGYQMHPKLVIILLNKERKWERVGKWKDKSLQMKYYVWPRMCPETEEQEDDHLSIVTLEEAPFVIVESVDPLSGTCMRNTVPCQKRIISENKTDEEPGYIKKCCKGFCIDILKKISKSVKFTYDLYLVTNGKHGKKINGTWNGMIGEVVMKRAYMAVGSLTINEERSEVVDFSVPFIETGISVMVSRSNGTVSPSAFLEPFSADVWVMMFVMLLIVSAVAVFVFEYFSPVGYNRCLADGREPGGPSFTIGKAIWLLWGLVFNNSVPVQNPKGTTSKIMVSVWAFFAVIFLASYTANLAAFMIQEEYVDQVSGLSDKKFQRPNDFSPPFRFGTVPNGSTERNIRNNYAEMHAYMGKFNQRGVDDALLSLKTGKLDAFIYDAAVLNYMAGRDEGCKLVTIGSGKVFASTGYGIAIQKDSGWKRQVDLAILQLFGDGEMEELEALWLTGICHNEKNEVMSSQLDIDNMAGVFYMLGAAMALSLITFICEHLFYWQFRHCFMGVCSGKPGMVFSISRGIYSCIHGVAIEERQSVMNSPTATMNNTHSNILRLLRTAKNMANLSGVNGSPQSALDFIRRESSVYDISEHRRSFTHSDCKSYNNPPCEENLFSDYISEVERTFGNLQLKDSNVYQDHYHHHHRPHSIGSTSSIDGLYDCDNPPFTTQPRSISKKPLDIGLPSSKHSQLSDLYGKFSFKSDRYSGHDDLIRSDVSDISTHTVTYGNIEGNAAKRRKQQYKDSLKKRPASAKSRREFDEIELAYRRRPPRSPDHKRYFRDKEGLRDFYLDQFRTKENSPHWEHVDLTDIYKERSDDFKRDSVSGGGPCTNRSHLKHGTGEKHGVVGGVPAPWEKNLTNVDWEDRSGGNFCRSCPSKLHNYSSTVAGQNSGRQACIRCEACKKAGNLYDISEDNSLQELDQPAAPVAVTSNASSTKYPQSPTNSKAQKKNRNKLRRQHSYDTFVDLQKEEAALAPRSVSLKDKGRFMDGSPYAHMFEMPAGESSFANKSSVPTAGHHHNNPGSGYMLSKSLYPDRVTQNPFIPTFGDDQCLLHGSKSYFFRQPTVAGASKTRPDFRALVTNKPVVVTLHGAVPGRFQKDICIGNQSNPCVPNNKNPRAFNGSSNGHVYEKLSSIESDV

C[C@@H]([C@@H](O)c1ccc(O)cc1)N1CCC(O)(c2ccccc2)CC1 [CP-101,606]
NMDAR-EPSC peak amplitude, % of baseline [1]: 30 ± 3 % of baseline
effect on EPSC decay time ([1]; treatment versus baseline, paired t test, 10 μM (spermine 100 μM)): unchanged
nH (Hill coefficient) ([2]; isoform 1a): 1.4
maximal inhibition ([2]; isoform 1a): ~ 95%
nH (Hill coefficient) ([3]; isoform 1a): 1.4
maximal inhibition ([3]; isoform 1a): ~ 65%
NMDAR-EPSC peak amplitude, % of baseline [4]: 50 ± 3 % of baseline
effect on EPSC decay time [4]: significantly accelerated

Cc1ccc2[nH]c(=O)c(C3=NN(C(=O)CCC(=O)O)C(c4ccc(Br)cc4)C3)c(-c3ccccc3)c2c1 (centres unmarked) [DQP-1105]
Relative Imin [5, 6]: −3 ± 1%
nH (Hill coefficient) ([5]; isoform 1a): 1.0
maximal inhibition ([5]; isoform 1a): ~ 100%
IC50 [5, 7]: 2.2 ± 0.1 µM
Relative Imin ([2]; at 30 μM, isoform 1a): 58 ± 2%
Relative Imin ([3]; isoform 1a): −8 ± 2 %
nH (Hill coefficient) ([3]; isoform 1a): 0.8
maximal inhibition ([3]; isoform 1a): ~ 100%
IC50 [3, 7]: 13 ± 1 µM

Cc1nccn1Cc1cc(-c2ccc(F)c(C(F)F)c2)cnn1.Cl.Cl [EVT-101]
Relative Imin ([5]; at 3 μM, isoform 1a): 92 ± 2%
Relative Imin [2, 6]: 3 ± 1%
nH (Hill coefficient) ([2]; isoform 1a): 1.0
maximal inhibition ([2]; isoform 1a): ~ 95%
IC50 [2, 7]: 0.009 ± 0.001 µM
Relative Imin ([3]; isoform 1a): 37 ± 2 %
nH (Hill coefficient) ([3]; isoform 1a): 1.1
maximal inhibition ([3]; isoform 1a): ~ 65%
IC50 [3, 7]: 0.012 ± 0.001 µM

Cc1ncc(CNC(=O)c2cnc(CNS(=O)(=O)c3ccc(F)c(Cl)c3)cn2)s1 [MPX-004]
NMDAR-EPSC peak amplitude, % of baseline [1]: 98 ± 5 % of baseline
NMDAR-EPSC peak amplitude, % of baseline [4]: 45 ± 2 % of baseline
effect on EPSC decay time [4]: significantly slowed

[Mg+2] [Mg^2+]
IC50 [5, 8]: 937 ± 85.9 µM
nH [5, 8]: 1.0
IC50 [5, 9]: 254 µM
nH [5, 9]: 1.0
IC50 [5, 10]: 72.5 ± 1.8 µM
nH [5, 10]: 1.0
IC50 [5, 11]: 25.1 ± 0.4 µM
nH [5, 11]: 1.0
δ, fraction of the membrane electric field sensed by the blocking site ([5]; Woodhull model, 0.1 mM Mg2+): 0.82
K0.5(0 mV), Mg2+ concentration producing half-maximal block at 0 mV [5, 12]: 11 mM
IC50 [2, 8]: 161 ± 11.8 µM
nH [2, 8]: 0.9
IC50 [2, 9]: 26 µM and 25.5 µM
nH [2, 9]: 1.0
IC50 [2, 10]: 5.5 ± 0.4 µM
nH [2, 10]: 1.0
IC50 [2, 11]: 1.6 ± 0.3 µM
nH [2, 11]: 0.9
δ, fraction of the membrane electric field sensed by the blocking site ([2]; Woodhull model, 0.1 mM Mg2+): 1.08
K0.5(0 mV), Mg2+ concentration producing half-maximal block at 0 mV [2, 12]: 4.5 mM
IC50 [3, 8]: 518 ± 14.3 µM
nH [3, 8]: 0.8
IC50 [3, 9]: 80 µM and 79.2 µM
nH [3, 9]: 0.9
IC50 [3, 10]: 19.9 ± 0.8 µM
nH [3, 10]: 0.9
IC50 [3, 11]: 6.8 ± 0.5 µM
nH [3, 11]: 0.9
δ, fraction of the membrane electric field sensed by the blocking site ([3]; Woodhull model, 0.1 mM Mg2+): 0.95
K0.5(0 mV), Mg2+ concentration producing half-maximal block at 0 mV [3, 12]: 6.6 mM

COc1ccc2nc(/C=C/c3cccc([N+](=O)[O-])c3)n(-c3ccc(C(=O)O)cc3)c(=O)c2c1 [QNZ-46]
Relative Imin [5, 6]: −3 ± 1%
nH (Hill coefficient) ([5]; isoform 1a): 1.0
maximal inhibition ([5]; isoform 1a): ~ 100%
IC50 [5, 7]: 2.7 ± 0.1 µM
Relative Imin ([2]; at 30 μM, isoform 1a): 76 ± 1%
Relative Imin ([3]; isoform 1a): 4 ± 1 %
nH (Hill coefficient) ([3]; isoform 1a): 1.0
maximal inhibition ([3]; isoform 1a): ~ 100%
IC50 [3, 7]: 10 ± 1 µM

CNC1(c2ccccc2Cl)CCCCC1=O (centres unmarked) [ketamine]
IC50 [5, 13]: 4.5 ± 0.5 µM
IC50 [5, 14]: 3.8 ± 0.2 µM
IC50 [5, 15]: 3.5 ± 0.5 µM
IC50 [5, 16]: 2.4 ± 0.2 µM
IC50 [5, 17]: 2.6 ± 0.4 µM
IC50 [5, 18]: 1.3 ± 0.1 µM
nH [5, 19]: 1.0
nH [5, 20]: 1.0
nH [5, 21]: 1.0
nH [5, 22]: 1.0
nH [5, 23]: 1.1
nH [5, 24]: 1.0
IC50 [2, 13]: 16.3 ± 1.9 µM
IC50 [2, 14]: 4.2 ± 0.7 µM
IC50 [2, 15]: 19.2 ± 2 µM
IC50 [2, 16]: 2.1 ± 0.3 µM
IC50 [2, 17]: 17 ± 2 µM
IC50 [2, 18]: 1 ± 0.1 µM
nH [2, 19]: 1.2
nH [2, 20]: 1.0
nH [2, 21]: 1.3
nH [2, 22]: 1.0
nH [2, 23]: 1.1
nH [2, 24]: 1.0

CC12CC3CC(C)(C1)CC(N)(C3)C2 [memantine]
nH [5, 19]: 1.0
nH [5, 20]: 1.1
nH [5, 21]: 1.0
nH [5, 22]: 1.1
nH [5, 23]: 1.0
nH [5, 24]: 1.1
nH [2, 19]: 1.1
nH [2, 20]: 0.9
nH [2, 21]: 1.0
nH [2, 22]: 1.0
nH [2, 23]: 1.1
nH [2, 24]: 1.0
nH [3, 19]: 1.0
nH [3, 20]: 1.1
nH [3, 21]: 0.9
nH [3, 22]: 1.0
nH [3, 23]: 0.9
nH [3, 24]: 1.0
